{"source": "paper PMC3792051", "about": "“Polyenylpyrrole Derivatives Inhibit NLRP3 Inflammasome Activation and Inflammatory Mediator Expression by Reducing Reactive Oxygen Species Production and Mitogen-Activated Protein Kinase Activation” (PLoS ONE, 2013)", "key": {"[1]": {"system": "NLRP3 inflammasome in LPS+ATP-activated peritoneal macrophages", "assay": "NLRP3 inflammasome-mediated IL-1β secretion (ELISA)", "type": "cell-based, mouse", "settings": "compound 10-40 µM 30 min before LPS 5.5 h, then ATP 5 mM 30 min", "experimental": "The effects of the test samples on IL-1β, TNF-α, and IL-6 production were measured by ELISA according to the manufacturer’s instructions. In brief, 50 µl of biotinylated antibody reagent and 50 µl of supernatant were added to a stripwell plate precoated with anti-mouse IL-1β, TNF-α, or IL-6 antibodies, which was then incubated at room temperature for 2 h. After washing the plate three times with washing buffer, 100 µl of diluted streptavidin-HRP concentrate was added to each well and the plate incubated at room temperature for 30 min. […] After addition of 100 µl of stop solution to each well, the absorbance at 450 nm of each well was measured on a microplate reader. […]\nFigure 4 Effect of compound 1h on NLRP3 inflammasome activation in LPS+ATP-activated J774A.1 macrophages. (A) J774A.1 macrophages (1 × 10^6/ml; 1 ml) or (B) peritoneal macrophages (1 × 10^5/ml; 1 ml) were incubated with 10-40 µM compound 1h or DMSO for 30 min, then LPS (1 µg/ml) was added and incubation continued for 5.5 h, then the cells were stimulated with ATP (5 mM) for an additional 30 min, then IL-1β in the culture medium was measured by ELISA (A, upper panel; B) and levels of active caspase-1 (p10) (A, lower panel) measured by Western blotting. […]"}, "[2]": {"system": "NLRP3 inflammasome in LPS + ATP-activated JAWSII cells", "assay": "NLRP3 inflammasome-mediated IL-1β secretion", "type": "cell-based, murine"}, "[3]": {"system": "LPS-activated J774A.1 macrophages", "assay": "NF-κB signaling (IKK-α/IκB-α Western blot, p65 nuclear translocation ELISA)", "type": "cell-based, murine", "settings": "J774A.1, 10-40 µM 30 min, LPS 20 min", "experimental": "(§1) Cells were washed twice with ice-cold phosphate-buffered saline (PBS) and lysed on ice for 5 min with lysis buffer (20 mM Tris-HCl, pH 7.5, 150 mM NaCl, 1 mM Na 2EDTA, 1 mM EGTA, 1% Triton X-100, 2.5 mM sodium pyrophosphate, 1 mM beta-glycerophosphate, 1 mM Na 3VO4, 1 µg/ml of leupeptin, 1 mM PMSF, protease inhibitor cocktail). The lysate was then centrifuged at 12,000 x g at 4 °C for 10 min and the pellet discarded. Proteins in the supernatant were separated by SDS-PAGE and electrotransferred to a PVDF membrane (EMD Millipore Corporation), which was then blocked by incubation for 1 h at room temperature in blocking buffer [(5% nonfat milk in PBS containing 0.1% Tween 20 (PBST)], then incubated for 2 h at room temperature with the primary antibody diluted in blocking buffer. After three washes in PBST, the membrane was incubated for 1 h at room temperature with an appropriate HRP-conjugated secondary antibody diluted in blocking buffer and developed using an enhanced chemiluminescence Western blot detection system (EMD Millipore Corporation).\n(§2) Nuclear proteins were extracted from RAW 264.7 and J774A.1 cells using a Nuclear Extract Kit (Active Motif) according to the manufacturer’s instructions and nuclear NF-κB p65 activation quantified using an ELISA-based TransAM NF-κB kit (Active Motif, Tokyo, Japan) according to the manufacturer’s protocol by reading the absorbance at 450 nm with a microplate absorbance reader (Bio-Rad Laboratories, Inc) and a reference wavelength of 655 nm.\n(§3) Following LPS stimulation, IκB in the complex is phosphorylated by IκB kinase (IKK), ubiquitinated, and rapidly degraded in proteasomes, thus releasing NF-κB [30].\n(§4) Figure 6 Effect of compound 1h on NF-κB activation in LPS-activated macrophages. (A) RAW 264.7 macrophages or (B) J774A.1 macrophages (both 5 × 10^5/ml; 1 ml) were incubated for 30 min with 10-40 µM compound 1h or DMSO, then LPS (1 µg/ml) was added and incubation continued for 20 min, then levels of phosphorylated and total IKK-α and IκB-α were measured by Western blotting. (C) RAW 264.7 macrophages or (D) J774A.1 macrophages (both 5 × 10^5/ml; 1 ml) were treated as in A and B, then nuclear translocation of NF-κB was analyzed by ELISA. (E) RAW-Blue^TM cells (5 × 10^5/ml; 1 ml) were incubated for 30 min with 2.5-40 µM compound 1h or DMSO, then LPS (1 µg/ml) was added and incubation continued for 24 h, then SEAP activity was measured by the QUANTI-Blue^TM assay and expressed as a percentage of that in the absence of compound 1h. In (A) and (B), the results are representative of those obtained in three different experiments. In (C-E), the data are expressed as the mean ± SD for three separate experiments. *, **, and *** indicate a significant difference at the level of p < 0.05, p < 0.01, and p < 0.001, respectively, compared to the DMSO/LPS group."}, "[4]": {"system": "LPS-activated RAW 264.7 macrophages", "assay": "NF-κB signaling (IKK-α/IκB-α Western blot, p65 nuclear translocation ELISA)", "type": "cell-based, murine", "settings": "RAW 264.7, 10-40 µM 30 min, LPS 20 min", "experimental": "as §1, §2, §3, §4"}, "[5]": {"system": "ATP-activated LPS-primed J774A.1 macrophages", "assay": "PKC-α and AKT phosphorylation by Western blot", "type": "cell-based, murine", "method": "Cells were washed twice with ice-cold phosphate-buffered saline (PBS) and lysed on ice for 5 min with lysis buffer (20 mM Tris-HCl, pH 7.5, 150 mM NaCl, 1 mM Na 2EDTA, 1 mM EGTA, 1% Triton X-100, 2.5 mM sodium pyrophosphate, 1 mM beta-glycerophosphate, 1 mM Na 3VO4, 1 µg/ml of leupeptin, 1 mM PMSF, protease inhibitor cocktail). The lysate was then centrifuged at 12,000 x g at 4 °C for 10 min and the pellet discarded. […]\nIn (C), LPS-primed J774A.1 macrophages (1 × 10^6/ml; 1 ml) were incubated for 30 min with 20 µM compound 1h or DMSO (vehicle) followed by ATP (5 mM) stimulation for 0-60 min, then phosphorylation of PKC-α was analyzed by Western blotting and expressed as the fold increase measured as the intensity of the PKC-α band divided by that of the actin band normalized to the corresponding value for DMSO at 0 minutes."}}}
{"compound": "O=c1cc(O)cc(/C=C/C=C/C=C/C=C/c2[nH]ccc2Cl)o1", "note": "[compound 1h]", "values": [{"measurement": "IL-1β secretion", "setting": "[1]", "result": "inhibited IL-1β secretion by primary peritoneal macrophages"}, {"measurement": "NLRP3 inflammasome-mediated IL-1β secretion", "setting": "[2]", "result": "reduced NLRP3 inflammasome-mediated interleukin-1β (IL-1β) secretion"}, {"measurement": "IκB-α degradation", "setting": "[3]", "result": "had a inhibitory effect on IκB-α degradation"}, {"measurement": "NF-κB nuclear translocation", "setting": "[3]", "result": "inhibited NF-κB nuclear translocation"}, {"measurement": "Phosphorylation of IKK-α and IκB-α", "setting": "[3]", "result": "inhibited phosphorylation of IKK-α and IκB-α in a dose-dependent manner"}, {"measurement": "IκB-α degradation", "setting": "[4]", "result": "had a inhibitory effect on IκB-α degradation"}, {"measurement": "NF-κB nuclear translocation", "setting": "[4]", "result": "inhibited NF-κB nuclear translocation"}, {"measurement": "Phosphorylation of IKK-α and IκB-α", "setting": "[4]", "result": "inhibited phosphorylation of IKK-α and IκB-α in a dose-dependent manner"}, {"measurement": "ATP-induced PKC-α phosphorylation", "setting": "[5]; LPS-primed J774A.1, 20 µM 30 min, ATP 5 mM 0-60 min", "result": "significant inhibition of ATP-induced PKC-α phosphorylation at 20-60 min"}, {"measurement": "ATP-induced AKT phosphorylation", "setting": "[5]; LPS-primed macrophages (data not shown)", "result": "did not reduce ATP-induced AKT phosphorylation"}]}
